Experimental data: patent US20220402862A1 (Intellia Therapeutics, Inc., priority 2019, published 2022)

Tests used:
[1] = pKa measurement of unformulated amine lipid (fluorescence, method of Jayaraman et al.); type: physicochemical; settings: 100 μM in 0.1 M phosphate buffer, pH 2.0-12.0
Method: The pKa of each amine lipid was determined according to the method in Jayaraman, et al. (Angewandte Chemie, 2012) with the following adaptations. […] Lipid was diluted to 100 μM in 0.1 M phosphate buffer (Boston Bioproducts) where the pH ranged from 2.0-12.0. Fluorescence intensity was measured using excitation and emission wavelengths of 321 nm and 448 nm.

Transthyretin (TTR) = assay: Serum TTR ELISA in mice after LNP dosing; type: in vivo, CD-1 female mice; settings: guide G282 experiments; for Serum TTR % TSS: mouse serum TTR relative to TSS control; for Serum TTR: mouse serum, ELISA
Method: CD-1 female mice ranging from 6-10 weeks of age were used in each study. Animals were weighed and grouped according to body weight for preparing dosing solutions based on group average weight. LNPs were dosed via the lateral tail vein in a volume of 0.2 mL per animal (approximately 10 mL per kilogram body weight). The animals were periodically observed for adverse effects for at least 24 hours post dose. For studies measuring in vivo editing in liver, CD-1 female mice were dosed at 0.1 mg/kg unless otherwise noted. Animals were euthanized at 6 or 7 days by ex sanguination via cardiac puncture under isoflurane anesthesia. Liver tissue was collected from each animal for DNA extraction and analysis. Blood was collected into serum separator tubes or into tubes containing buffered sodium citrate for plasma as described herein. Cohorts of mice were measured for editing by Next-Generation Sequencing (NGS).
Blood was collected and the serum was isolated as indicated. The total mouse TTR serum levels were determined using a Mouse Prealbumin (Transthyretin) ELISA Kit (Aviva Systems Biology, Cat. OKIA00111). Briefly, sera were serial diluted with kit sample diluent to a final dilution of 10,000-fold for 0.1 mg/kg dose and final dilutions of 10,000-fold and of 2,500-fold for 0.3 mg/kg. This diluted sample was then added to the ELISA plates and the assay was carried out according to the manufacturer's directions.

[2] = RNA encapsulation efficiency of LNPs (Ribogreen fluorescence assay); type: physicochemical; settings: LNP
Method: A fluorescence-based assay (Ribogreen®, ThermoFisher Scientific) is used to determine total RNA concentration and free RNA. Encapsulation efficiency is calculated as (Total RNA-Free RNA)/Total RNA. LNP samples are diluted appropriately with 1× TE buffer containing 0.2% Triton-X 100 to determine total RNA or 1× TE buffer to determine free RNA. Standard curves are prepared by utilizing the starting RNA solution used to make the compositions and diluted in 1× TE buffer +/− 0.2% Triton-X 100. Diluted RiboGreen® dye (according to the manufacturer's instructions) is then added to each of the standards and samples and allowed to incubate for approximately 10 minutes at room temperature, in the absence of light. A SpectraMax M5 Microplate Reader (Molecular Devices) is used to read the samples with excitation, auto cutoff and emission wavelengths set to 488 nm, 515 nm, and 525 nm respectively. Total RNA and free RNA are determined from the appropriate standard curves.
Encapsulation efficiency is calculated as (Total RNA-Free RNA)/Total RNA. The same procedure may be used for determining the encapsulation efficiency of a DNA-based cargo component. In a fluorescence-based assay, for single-strand DNA Oligreen Dye may be used, and for double-strand DNA, Picogreen Dye. Alternatively, the total RNA concentration can be determined by a reverse-phase ion-pairing (RP-IP) HPLC method. Triton X-100 is used to disrupt the LNPs, releasing the RNA. The RNA is then separated from the lipid components chromatographically by RP-IP HPLC and quantified against a standard curve using UV absorbance at 260 nm.

[3] = Dynamic light scattering of LNPs: Z-average diameter, number average diameter, PDI; type: physicochemical; settings: LNP
Method: Dynamic Light Scattering (“DLS”) is used to characterize the polydispersity index (“PDI”) and size of the LNPs of the present disclosure. DLS measures the scattering of light that results from subjecting a sample to a light source. PDI, as determined from DLS measurements, represents the distribution of particle size (around the mean particle size) in a population, with a perfectly uniform population having a PDI of zero.
LNP compositions are analyzed for average particle size, polydispersity index (PDI), total RNA content, encapsulation efficiency of RNA, and zeta potential. LNP compositions may be further characterized by lipid analysis, AF4-MALS, NTA, and/or cryo-EM. Average particle size and polydispersity are measured by dynamic light scattering (DLS) using a Malvern Zetasizer DLS instrument or Wyatt NanoStar. LNP samples were diluted with PBS buffer prior to being measured by DLS. Z-average diameter which is an intensity-based measurement of average particle size is reported along with number average diameter and PDI. A Malvern Zetasizer or Wyatt NanoStar instrument is also used to measure the zeta potential of the LNP. Samples are diluted 1:17 (50 μL into 800 μL) in 0.1× PBS, pH 7.4 prior to measurement.

[4] = sg:mRNA 1:1, N/P about 6, amine lipid/DSPC/cholesterol/PEG-2k-DMG 50/9/38/3, Table 2, Experiments 2-20
[5] = sg:mRNA 1:1, N/P about 6, 50/9/38/3, Table 2, Experiments 2-20
[6] = sg:mRNA 1:1.3, N/P about 6, 50/9/38/3, Table 2, Experiment 1

| Structure (SMILES) | pKa [1] | Serum TTR % TSS (Transthyretin (TTR)) [%] | Serum TTR (Transthyretin (TTR)) [µg/mL] | other results |
| --- | --- | --- | --- | --- |
| CCCCC/C=C\C/C=C\CCCCCCCC(=O)OCC(COC(=O)CCC(OCCCCCCCC)OCCCCCCCC)COC(=O)OCC1CN(CC)C1 (stereo not shown) [Compound 50, 3-((4,4-bis(octyloxy)butanoyl)oxy)-2-(((((1-ethylazetidin-3-yl)methoxy)carbonyl)oxy)methyl)propyl (9Z,12Z)-octadeca-9,12-dienoate] | 5.2 | – | – | – |
| CCCCC/C=C\C/C=C\CCCCCCCC(=O)OCC(COC(=O)CCC(OCCCCCCCC)OCCCCCCCC)COC(=O)NCC1CCN(C)C1 (stereo not shown) [Compound 43, 3-((4,4-bis(octyloxy)butanoyl)oxy)-2-(((((1-methylpyrrolidin-3-yl)methyl)carbamoyl)oxy)methyl)propyl (9Z,12Z)-octadeca-9,12-dienoate] | 8.6 | – | – | – |
| CCCCCCCCCCOC(=O)CCCCCCCC(=O)OCC(COC(=O)CCCCCC(=O)OC(CCCCCCCC)CCCCCCCC)COC(=O)NCCN(CC)CC (stereo not shown) [Compound 81, 1-decyl 9-(3-(((2-(diethylamino)ethyl)carbamoyl)oxy)-2-(((7-(heptadecan-9-yloxy)-7-oxoheptanoyl)oxy)methyl)propyl) nonanedioate] | 6.65 | – | – | – |
| CCCCC/C=C\C/C=C\CCCCCCCC(=O)OCC(COC(=O)CCC(OCCCCCCCC)OCCCCCCCC)COC(=O)C1(C)CCN(C)C1 (stereo not shown) [Compound 30, 3-((4,4-bis(octyloxy)butanoyl)oxy)-2-((((9Z,12Z)-octadeca-9,12-dienoyl)oxy)methyl)propyl 1,3-dimethylpyrrolidine-3-carboxylate] | 6.06 | – | – | – |
| CCCCC/C=C\C/C=C\CCCCCCCC(=O)OCC(COC(=O)CCC(OCCCCCCCC)OCCCCCCCC)COC(=O)NCCCN1CCC(O)CC1 (stereo not shown) [Compound 46, 3-((4,4-bis(octyloxy)butanoyl)oxy)-2-((((3-(4-hydroxypiperidin-1-yl)propyl)carbamoyl)oxy)methyl)propyl (9Z,12Z)-octadeca-9,12-dienoate] | 8.9 | – | – | – |
| CCCCC/C=C\C/C=C\CCCCCCCC(=O)OCC(COC(=O)CCC(OCCCCCCCC)OCCCCCCCC)COC(=O)N(C)CCN(CC)CC (stereo not shown) [Compound 33, 3-((4,4-bis(octyloxy)butanoyl)oxy)-2-((((2-(diethylamino)ethyl)(methyl)carbamoyl)oxy)methyl)propyl (9Z,12Z)-octadeca-9,12-dienoate] | 6.03 | – | – | – |
| CCCCC/C=C\C/C=C\CCCCCCCC(=O)OCC(COC(=O)CCC(OCCCCCCCC)OCCCCCCCC)COC(=O)NCCN1CCC(O)CC1 (stereo not shown) [Compound 49, 3-((4,4-bis(octyloxy)butanoyl)oxy)-2-((((2-(4-hydroxypiperidin-1-yl)ethyl)carbamoyl)oxy)methyl)propyl (9Z,12Z)-octadeca-9,12-dienoate] | 8.4 | – | – | – |
| CCCCC/C=C\C/C=C\CCCCCCCC(=O)OCC(COC(=O)CCC(OCCCCCCCC)OCCCCCCCC)COC(=O)NCCN(C)C (stereo not shown) [Compound 34, 3-((4,4-bis(octyloxy)butanoyl)oxy)-2-((((2-(dimethylamino)ethyl)carbamoyl)oxy)methyl)propyl (9Z,12Z)-octadeca-9,12-dienoate] | 7.84 | – | – | – |
| CCCCC/C=C\C/C=C\CCCCCCCC(=O)OCC(COC(=O)CCC(OCCCCCCCC)OCCCCCCCC)COC(=O)OCC1CCCN1C (stereo not shown) [Compound 14, 3-((4,4-bis(octyloxy)butanoyl)oxy)-2-(((((1-methylpyrrolidin-2-yl)methoxy)carbonyl)oxy)methyl)propyl (9Z,12Z)-octadeca-9,12-dienoate] | – | 88 | 908 | Encapsulation (%) [2, 4]: 93%; Number mean (nm) [3, 5]: 45.18 nm; PDI [3, 5]: 0.091; Z-avg (nm) [3, 5]: 64.69 nm |
| CCCCC/C=C\C/C=C\CCCCCCCC(=O)OCC(COC(=O)CCC(OCCCCCCCC)OCCCCCCCC)COC(=O)OCCN(C)C (stereo not shown) [Compound 18, 3-((4,4-bis(octyloxy)butanoyl)oxy)-2-((((2-(dimethylamino)ethoxy)carbonyl)oxy)methyl)propyl (9Z,12Z)-octadeca-9,12-dienoate] | – | 82 | 849 | Encapsulation (%) [2, 4]: 97%; Number mean (nm) [3, 5]: 48.22 nm; PDI [3, 5]: 0.090; Z-avg (nm) [3, 5]: 68.72 nm |
| CCCCC/C=C\C/C=C\CCCCCCCC(=O)OCC(COC(=O)CCC(OCCCCCCCC)OCCCCCCCC)COC(=O)OCCCN(C)CC (stereo not shown) [Compound 20, 3-((4,4-bis(octyloxy)butanoyl)oxy)-2-((((3-(ethyl(methyl)amino)propoxy)carbonyl)oxy)methyl)propyl (9Z,12Z)-octadeca-9,12-dienoate] | – | 46 | 476 | Encapsulation (%) [2, 4]: 96%; Number mean (nm) [3, 5]: 64.34 nm; PDI [3, 5]: 0.023; Z-avg (nm) [3, 5]: 79.25 nm |
| CCCCC/C=C\C/C=C\CCCCCCCC(=O)OCC(COC(=O)CCC(OCCCCCCCC)OCCCCCCCC)COC(=O)OCCCN1CCCC1 (stereo not shown) [Compound 3, 3-((4,4-bis(octyloxy)butanoyl)oxy)-2-((((3-(pyrrolidin-1-yl)propoxy)carbonyl)oxy)methyl)propyl (9Z,12Z)-octadeca-9,12-dienoate] | – | 105 | 1297 | Encapsulation (%) ([2]; sg:mRNA 1:1.3, N/P about 6, amine lipid/DSPC/cholesterol/PEG-2k-DMG 50/9/38/3, Table 2, Experiment 1): 91%; Number mean (nm) [3, 6]: 61.67 nm; PDI [3, 6]: 0.079; Z-avg (nm) [3, 6]: 86.16 nm |
| CCCCCCCCCCOC(=O)CCCCCCCC(=O)OCC(COC(=O)CCC(OCCCCCCC)OCCCCCCC)COC(=O)OCCCN(CC)CC (stereo not shown) [Compound 78, 1-(3-((4,4-bis(heptyloxy)butanoyl)oxy)-2-((((3-(diethylamino)propoxy)carbonyl)oxy)methyl)propyl) 9-decyl nonanedioate] | 6.11 | – | – | – |
| CCCCC/C=C\C/C=C\CCCCCCCC(=O)OCC(COC(=O)CCC(OCCCCCCCC)OCCCCCCCC)COC(=O)OCCC(C)N(C)C (stereo not shown) [Compound 22, 3-((4,4-bis(octyloxy)butanoyl)oxy)-2-((((3-(dimethylamino)butoxy)carbonyl)oxy)methyl)propyl (9Z,12Z)-octadeca-9,12-dienoate] | – | 61 | 634 | Encapsulation (%) [2, 4]: 98%; Number mean (nm) [3, 5]: 73.96 nm; PDI [3, 5]: 0.004; Z-avg (nm) [3, 5]: 89.43 nm |
| CCCCC/C=C\C/C=C\CCCCCCCC(=O)OCC(COC(=O)CCC(OCCCCCCCC)OCCCCCCCC)COC(=O)NCCN(C)CC (stereo not shown) [Compound 35, 3-((4,4-bis(octyloxy)butanoyl)oxy)-2-((((2-(ethyl(methyl)amino)ethyl)carbamoyl)oxy)methyl)propyl (9Z,12Z)-octadeca-9,12-dienoate] | 7.39 | – | – | – |
